{"source": "patent US20180153848A1", "about": "“CABAZITAXEL FAT EMULSION, AND PREPARATION METHOD AND USE THEREOF” (JIANGSU TASLY DIYI PHARMACEUTICAL CO., LTD., priority 2015, published 2018)", "key": {"[1]": {"experiment": "Investigation on the solubility of cabazitaxel in oils for injection, with low temperature challenge test", "type": "physicochemical", "design": "key to dissolved state in oil for injection: —: Completely insoluble", "conditions": "for dissolved state in oil for injection: 70° C. with stirring", "protocol": "In this Test Example, appropriate amounts of cabazitaxel were weighed, respectively placed into medium chain triglyceride for injection, soybean oil, olive oil, castor oil and palm oil at 70° C., and heated with stirring, to observe the dissolved state thereof. The solutions with the drug dissolved were stored at a condition of 4-6° C. for 72 hours, to perform a low temperature challenge test. The appearance changes of the solutions at 72 hours in the low temperature storage were observed."}, "[2]": {"conditions": "cited from earlier work"}, "[3]": {"test_system": "Beagle dogs", "conditions": "intravenous injection of 0.3% or 0.35% Tween-80; cited from earlier work"}}}
{"molecule": "CO[C@H]1C(=O)[C@]2(C)[C@@H](OC)C[C@H]3OC[C@@]3(OC(C)=O)[C@H]2[C@H](OC(=O)c2ccccc2)[C@]2(O)C[C@H](OC(=O)[C@H](O)[C@@H](NC(=O)OC(C)(C)C)c3ccccc3)C(C)=C1C2(C)C", "note": "[cabazitaxel, 4-acetyloxy-2α-benzoyloxy-5β,20-epoxy-1-hydroxy-7β, 10β-dimethoxy-9-oxotax-11-en-13 α-yl(2R,3S)-3-t-butoxycarbonylamino-2-hydroxy-3-phenylpropionate]", "values": [{"measurement": "solubility in medium chain triglycerides", "setting": "[1]", "value": "about 50 mg/g"}, {"measurement": "solubility in medium chain triglyceride for injection", "setting": "[1]; after storage at low temperature (4-6° C.) for 72 h", "value": "about 50 mg/g"}, {"measurement": "dissolved state in oil for injection", "setting": "[1]; castor oil, Concentration (mg/g) 10 h", "value": "cannot be fully dissolved"}, {"measurement": "dissolved state in oil for injection", "setting": "[1]; castor oil, Concentration (mg/g) 20 h", "value": "—"}, {"measurement": "dissolved state in oil for injection", "setting": "[1]; castor oil, Concentration (mg/g) 30 h", "value": "—"}, {"measurement": "dissolved state in oil for injection", "setting": "[1]; castor oil, Concentration (mg/g) 40 h", "value": "—"}, {"measurement": "dissolved state in oil for injection", "setting": "[1]; castor oil, Concentration (mg/g) 50 h", "value": "—"}, {"measurement": "dissolved state in oil for injection", "setting": "[1]; castor oil, Concentration (mg/g) 60 h", "value": "—"}, {"measurement": "solubility in long chain oils", "setting": "[1]; long chain oils such as soybean oil, olive oil, castor oil, palm oil", "value": "less than 10 mg/g"}, {"measurement": "dissolved state in oil for injection", "setting": "[1]; medium chain triglyceride, Concentration (mg/g) 60 h", "value": "rapidly dissolved"}, {"measurement": "dissolved state in oil for injection", "setting": "[1]; olive oil, Concentration (mg/g) 10 h", "value": "cannot be fully dissolved"}, {"measurement": "dissolved state in oil for injection", "setting": "[1]; olive oil, Concentration (mg/g) 20 h", "value": "—"}, {"measurement": "dissolved state in oil for injection", "setting": "[1]; olive oil, Concentration (mg/g) 30 h", "value": "—"}, {"measurement": "dissolved state in oil for injection", "setting": "[1]; olive oil, Concentration (mg/g) 40 h", "value": "—"}, {"measurement": "dissolved state in oil for injection", "setting": "[1]; olive oil, Concentration (mg/g) 50 h", "value": "—"}, {"measurement": "dissolved state in oil for injection", "setting": "[1]; olive oil, Concentration (mg/g) 60 h", "value": "—"}, {"measurement": "dissolved state in oil for injection", "setting": "[1]; palm oil, Concentration (mg/g) 10 h", "value": "cannot be fully dissolved"}, {"measurement": "dissolved state in oil for injection", "setting": "[1]; palm oil, Concentration (mg/g) 20 h", "value": "—"}, {"measurement": "dissolved state in oil for injection", "setting": "[1]; palm oil, Concentration (mg/g) 30 h", "value": "—"}, {"measurement": "dissolved state in oil for injection", "setting": "[1]; palm oil, Concentration (mg/g) 40 h", "value": "—"}, {"measurement": "dissolved state in oil for injection", "setting": "[1]; palm oil, Concentration (mg/g) 50 h", "value": "—"}, {"measurement": "dissolved state in oil for injection", "setting": "[1]; palm oil, Concentration (mg/g) 60 h", "value": "—"}, {"measurement": "dissolved state in oil for injection", "setting": "[1]; soybean oil, Concentration (mg/g) 10 h", "value": "cannot be fully dissolved"}, {"measurement": "dissolved state in oil for injection", "setting": "[1]; soybean oil, Concentration (mg/g) 20 h", "value": "—"}, {"measurement": "dissolved state in oil for injection", "setting": "[1]; soybean oil, Concentration (mg/g) 30 h", "value": "—"}, {"measurement": "dissolved state in oil for injection", "setting": "[1]; soybean oil, Concentration (mg/g) 40 h", "value": "—"}, {"measurement": "dissolved state in oil for injection", "setting": "[1]; soybean oil, Concentration (mg/g) 50 h", "value": "—"}, {"measurement": "dissolved state in oil for injection", "setting": "[1]; soybean oil, Concentration (mg/g) 60 h", "value": "—"}, {"measurement": "solubility in ethanol and other organic solvents", "setting": "[2]", "value": "soluble"}, {"measurement": "solubility in water", "setting": "[2]", "value": "almost insoluble"}]}
{"molecule": "Tween-80", "values": [{"measurement": "grade of allergic reactions", "setting": "[3]", "value": "≥ 3"}]}
